Measured values reported in article PMC12637021, “Talin–tensin3 interactions regulate fibrillar adhesion formation and tensin3 phase separation” (The Journal of Cell Biology, 2025).
Where “and” joins values, the source holds several entries; their conditions need not be identical. Identical values can stand only once. Where a SMILES comes first, the peptide text is derived from it.

Tests used:
[1] = molecular target: T1, talin R4 domain (residues 913–1,044) (Mus musculus, UniProt P26039); experiment: 1H-15N HSQC NMR titration of talin R4; type: binding
T1 construct: R4 domain (residues 913–1,044); hexahistidine-tag followed by TEV protease cleavage site (N); made in house; host or cells: E. coli BL21
Experimental: (§1) Recombinant mouse talin1 R3 and R7R8 domains were expressed using the pET-151/D-TOPO vector. The recombinant mouse talin R4 domain was expressed using the pET-28a(+)vectors. Both vectors include an N-terminal hexahistidine-tag followed by a tobacco etch virus protease cleavage site. Proteins were overexpressed in BL21 cells and purified via nickel-affinity chromatography with a single-step elution at 250 mM imidazole concentration. For NMR studies, uniformly ^15N-labeled proteins were produced by growing cells in 2xM9 minimal medium supplemented with 1 g/Liter ^15N-ammonium chloride (^15NH4Cl) as the sole nitrogen source. Following purification, proteins were concentrated and buffer-exchanged using PD-10 desalting columns (Cytiva). Final protein concentrations were determined by measuring absorbance at 280 nm using a NanoDrop spectrophotometer (Thermo Fisher Scientific), based on calculated extinction coefficients.
(§2) NMR spectra were acquired on Bruker Neo 700 MHz (for talin R3) or 800 MHz (for talin R4 and R7R8) spectrometers equipped with TCI cryoprobes. All experiments were performed at 298 K using 200 µM of uniformly ^15N-labeled talin R3, R4, or R7R8 in 20 mM sodium phosphate buffer (pH 6.4) containing 50 mM NaCl, 0.1 mM tris(2-carboxyethyl)phosphine (TCEP), and 5% (vol/vol) D2O. For titration experiments, synthetic tensin3 TBS peptide (aa 692–718) was added at final concentrations of 50, 100, 200, 400, and 800 µM. NMR data were processed using TopSpin (Bruker) and analyzed with Collaborative Computational Project for NMR software AnalysisAssign (version 3.2). HSQC spectra were measured using a standard Bruker pulse sequence. HSQC signals of the free proteins were assigned using the available backbone chemical shift data from the Biological Magnetic Resonance Data Bank (BMRB entries; R3: 17332; R4: 18313). The signals of the bound state were assigned by following the chemical shift changes with the increased concentrations of the peptide. Residue-specific chemical shift differences were calculated using HSQC spectra in the presence of 400 µM tensin3 TBS peptide.

[2] = molecular target: T2, talin R3 domain (residues 787–911) (Mus musculus, UniProt P26039); experiment: 1H-15N HSQC NMR titration of talin R3; type: binding
T2 construct: recombinant talin R3 domain (residues 787–911); hexahistidine-tag followed by TEV protease cleavage site (N); made in house; host or cells: E. coli BL21
Experimental: as §1, §2

[3] = molecular target: T2, talin R3 domain (residues 787–911); experiment: ITC, tensin3 TBS peptide binding to talin R3; details: ITC 25°C, pH 6.5; mean ± SD from triplicate measurements
From the text: (§3) Figure 3. Structural characterization of the multidomain talin–tensin3 interaction. (A) Representative images of NIH3T3 cells co-expressing GFP-R11DD-cBAK WT or carrying K2024E, K2031E, or both (K2024E+K2031E) with mCh-IDR. (B) Mitochondrial pulldown experiment using the same constructs as in A. (C) AlphaFold3 model of the talin R8–tensin3 TBS complex. TBS (orange) was predicted to engage the α2-α3 face of the R8 bundle (cyan). K1500 and R1510 (brown) are highlighted on the […]. (D) NIH3T3 cells co-expressing GFP-R7R8-cBAK WT or carrying K1500E or R1510E with mCh-IDR. (E) Mitochondrial pulldown experiment using constructs as in D. (F) Cells co-expressing mCh-TNS3-WT-cBAK and GFP-TLN1 constructs (R8m, K1500E; R11m, K2024E+K2031E). mCh-TNS3-L702E-cBAK was used as a negative control. (G and H) Overlay ^1H-^15N HSQC spectra of ^15N-labeled talin R3 (G) and talin R4 (H), at a concentration of 200 µM, in the absence (blue) and presence (red) of tensin3 TBS peptide at a molar ratio of 1:2. Magnified views in the right panels show the cross-peaks corresponding to the residues K869 and V871 of talin R3 (G) and the residues S927 and G969 of talin R4 (H), illustrating the progressive chemical shift changes at peptide molar ratios of 0 (blue), 0.25 (orange), 0.5 (green), 1.0 (coral), and 2.0 (red). The HSQC spectra of R3 and R4 were recorded at 700 and 800 MHz, respectively. (I and J) Mapping of the residue-specific CSD (related to Fig. S2, H and I) on the AlphaFold3 models of talin R3 (I) and R4 (J) colored in cyan, respectively, in complex with tensin3 TBS (orange). […]
(§4) Recombinant mouse talin1 R3 and R7R8 domains were expressed using the pET-151/D-TOPO vector. […] Final protein concentrations were determined by measuring absorbance at 280 nm using a NanoDrop spectrophotometer (Thermo Fisher Scientific), based on calculated extinction coefficients.
(§5) ITC experiments were performed using a MicroCal PEAQ-ITC automated instrument (Malvern Panalytical) at 25°C. […] Data were analyzed using the one-site binding model implemented in MicroCal PEAQ-ITC analysis software (Malvern Panalytical).

[4] = molecular target: T3, talin R7R8 region (residues 1,359–1,659) (Mus musculus, UniProt P26039); experiment: 1H-15N HSQC NMR titration of talin R7R8; type: binding; details: intermediate exchange
T3 construct: R7R8 region (residues 1,359–1,659); hexahistidine-tag followed by TEV protease cleavage site (N); made in house; host or cells: E. coli BL21
Experimental: as §1, with “Following purification, proteins were concentrated and buffer-exchanged using PD-10 desalting columns (Cytiva).” left out
NMR spectra were acquired on Bruker Neo 700 MHz (for talin R3) or 800 MHz (for talin R4 and R7R8) spectrometers equipped with TCI cryoprobes. […] NMR data were processed using TopSpin (Bruker) and analyzed with Collaborative Computational Project for NMR software AnalysisAssign (version 3.2). HSQC spectra were measured using a standard Bruker pulse sequence. […] Residue-specific chemical shift differences were calculated using HSQC spectra in the presence of 400 µM tensin3 TBS peptide.

[5] = molecular target: talin R11; details: previous observation; ref Atherton et al., 2022; read-out: Kd, talin R11 with tensin3 TBS; cited from earlier work
[6] = molecular target: T3, talin R7R8 region (residues 1,359–1,659); experiment: ITC, tensin3 TBS peptide binding to talin R7R8; details: ITC 25°C, pH 6.5; mean ± SD from triplicate measurements
From the text: as §3, §4, §5

[7] = molecular target: T1, talin R4 domain (residues 913–1,044); experiment: ITC, tensin3 TBS peptide binding to talin R4; details: ITC 25°C, pH 6.5; mean ± SD from triplicate measurements
From the text: as §3, §4, §5

[8] = 1:2 molar ratio (400 µM TBS peptide), threshold 5× SD

T1 sequence (P26039 913-1044 limits assumed): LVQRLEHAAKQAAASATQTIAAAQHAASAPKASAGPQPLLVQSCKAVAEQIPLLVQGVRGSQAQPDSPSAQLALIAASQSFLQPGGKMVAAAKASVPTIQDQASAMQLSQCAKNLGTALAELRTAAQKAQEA
T3 sequence (P26039 1359-1659 limits assumed): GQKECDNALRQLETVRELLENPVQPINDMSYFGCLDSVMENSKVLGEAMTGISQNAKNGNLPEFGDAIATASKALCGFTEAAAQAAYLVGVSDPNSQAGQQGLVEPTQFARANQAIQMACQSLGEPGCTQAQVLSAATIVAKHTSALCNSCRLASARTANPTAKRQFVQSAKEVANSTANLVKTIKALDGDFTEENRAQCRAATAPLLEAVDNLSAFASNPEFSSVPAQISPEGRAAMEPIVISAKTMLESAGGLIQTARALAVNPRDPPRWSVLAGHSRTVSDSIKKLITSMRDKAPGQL
T2 sequence (P26039 787-911): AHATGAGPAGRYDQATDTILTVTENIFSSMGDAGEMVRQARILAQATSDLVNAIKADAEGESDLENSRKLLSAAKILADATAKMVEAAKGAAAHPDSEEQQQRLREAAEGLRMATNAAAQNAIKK

HSQC spectral changes on addition of TBS, R4 ([1]; 200 µM 15N-talin R4, 298 K, 20 mM sodium phosphate pH 6.4, 50 mM NaCl, 0.1 mM TCEP, 5% D2O, 800 MHz, molar ratio up to 1:2): substantial changes
location of significant chemical shift perturbations, R4 [1, 8]: α1 and α2 helices of R4
Kd range suggested by exchange rate in NMR, R4 ([1]; intermediate exchange): micromolar (µM) range
HSQC spectral changes on addition of TBS, R3 ([2]; 200 µM 15N-talin R3, 298 K, 20 mM sodium phosphate pH 6.4, 50 mM NaCl, 0.1 mM TCEP, 5% D2O, 700 MHz, molar ratio up to 1:2): substantial changes
location of significant chemical shift perturbations, R3 [2, 8]: α2 and α3 helices of R3
Kd range suggested by exchange rate in NMR, R3 ([2]; intermediate exchange): micromolar (µM) range
Gibbs free energy (ΔG), R3-TBS [3]: -6.41 ± 0.0478 kcal/mol
enthalpy change (ΔH), R3-TBS [3]: 1.68 ± 0.148 kcal/mol and 1.68 ± 0.14 kcal/mol
entropy contribution (−TΔS), R3-TBS [3]: -8.08 ± 0.0956 kcal/mol
Kd range suggested by exchange rate in NMR, R7R8 [4]: micromolar (µM) range
Gibbs free energy (ΔG), R7R8-TBS [6]: -6.549 ± 0.0406 kcal/mol
enthalpy change (ΔH), R7R8-TBS [6]: 10.21 ± 0.492 kcal/mol
entropy contribution (−TΔS), R7R8-TBS [6]: -16.75 ± 0.464 kcal/mol
Gibbs free energy (ΔG), R4-TBS [7]: -6.29 ± 0.086 kcal/mol
enthalpy change (ΔH), R4-TBS [7]: 2.94 ± 0.586 kcal/mol and 2.94 ± 0.574 kcal/mol
entropy contribution (−TΔS), R4-TBS [7]: -9.32 ± 0.626 kcal/mol
Structure (SMILES): CC[C@H](C)[C@H](NC(=O)[C@H](CO)NC(=O)[C@H](CCC(N)=O)NC(=O)[C@H](CC(=O)O)NC(=O)[C@@H](NC(=O)[C@H](CC(=O)O)NC(=O)[C@H](CC(C)C)NC(=O)[C@@H](N)[C@@H](C)O)[C@@H](C)CC)C(=O)N[C@@H](CCC(=O)O)C(=O)N[C@@H](CCC(N)=O)C(=O)N[C@@H](CC(C)C)C(=O)N[C@@H](CC(N)=O)C(=O)N[C@@H](CCCNC(=N)N)C(=O)N[C@@H](CC(C)C)C(=O)N[C@H](C(=O)N[C@@H](CC(C)C)C(=O)N[C@@H](CCC(=O)O)C(=O)N[C@@H](CC(C)C)C(=O)N[C@@H](CC(=O)O)C(=O)N1CCC[C@H]1C(=O)N[C@H](C(=O)N[C@@H](Cc1ccccc1)C(=O)N[C@@H](CCC(=O)O)C(=O)N1CCC[C@H]1C(=O)N[C@H](C(=O)N1CCC[C@H]1C(=O)N[C@H](C(=O)O)[C@@H](C)O)[C@@H](C)CC)[C@@H](C)O)[C@@H](C)CC [tensin3 TBS] (H-TLDIDQSIEQLNRLILELDPTFEPIPT-OH; N-terminus and C-terminus assumed)
Kd [5]: 17 µM
